Results: article PMC7391726, “Fatty acid mimetic PBI-4547 restores metabolic homeostasis via GPR84 in mice with non-alcoholic fatty liver disease” (Scientific Reports, 2020)
pEC50, pKi: −log10 of the molar value.

Assays:
[1] = biological target: T1, GPR120 (Homo sapiens, UniProt Q5NUL3); assay: BRET β-arrestin-2 recruitment to GPR120-GFP10 in HEK293 cells; type: cell-based; conditions: Rluc8-β-arrestin-2 / GPR120-GFP10
T1 construct: expressed in transfected cells; host or cells: HEK293
T1 sequence (Q5NUL3 1-361): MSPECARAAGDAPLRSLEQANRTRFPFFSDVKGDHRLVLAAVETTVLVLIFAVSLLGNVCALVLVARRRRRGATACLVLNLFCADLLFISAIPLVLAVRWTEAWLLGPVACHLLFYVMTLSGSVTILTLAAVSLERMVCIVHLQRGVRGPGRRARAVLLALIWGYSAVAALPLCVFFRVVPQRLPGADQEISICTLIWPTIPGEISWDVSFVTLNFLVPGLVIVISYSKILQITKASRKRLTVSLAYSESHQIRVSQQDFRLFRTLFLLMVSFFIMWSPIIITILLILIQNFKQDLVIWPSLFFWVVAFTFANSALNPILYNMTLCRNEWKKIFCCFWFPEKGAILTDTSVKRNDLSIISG
Method: Figure 1 PBI-4547 binding and activity on GPR84, GPR40, GPR120, and PPAR receptors. (A) Chemical structure of PBI-4547. (B) Gi pathway activation was monitored in HEK293 cells transfected with GPR84 and the Gαi2 activation biosensor. Cells were co-treated with […] sodium decanoate and increasing concentrations of PBI-4547, and BRET variation compared with vehicle was measured. (C) β-arrestin 2 recruitment to activated GPR120 receptor was monitored in HEK293 cells transfected with RLuc8-β-arrestin 2 and GPR120-GFP10. (D) Cells transfected with GPR40 and Gαq or Gαi2 activation biosensor were exposed to increasing concentrations of PBI-4547 or to 500 µM of sodium decanoate, and BRET variation compared with vehicle was measured. Cells were exposed to increasing concentrations of PBI-4547 or to 100 µM of GW9508, and BRET variation compared with vehicle was measured. […] Data in (B–D) are expressed as means ± SEM of 4–5 experiments; data in (E,F) are from a representative experiment from a total of 3 to 4 independent experiments. […]
BRET measurements in transiently transfected HEK293 cells were performed as previously described. Ligands were incubated with cells at room temperature for 10 min (G protein biosensors) or 25 min (β-arrestin/GPR120) before collecting BRET[2] readings between Rluc8 and GFP10.

[2] = biological target: T2, PPARγ (Homo sapiens, UniProt P37231); assay: LanthaScreen TR-FRET competitive binding assay, PPARγ LBD; conditions: Cheng-Prusoff; read-out: Ki inhibition constant, PPARγ LBD
T2 construct: glutathione S-transferase (GST)-tagged human PPAR-LBD; purchased Fisher Scientific
T2 sequence (P37231 238-503 limits assumed): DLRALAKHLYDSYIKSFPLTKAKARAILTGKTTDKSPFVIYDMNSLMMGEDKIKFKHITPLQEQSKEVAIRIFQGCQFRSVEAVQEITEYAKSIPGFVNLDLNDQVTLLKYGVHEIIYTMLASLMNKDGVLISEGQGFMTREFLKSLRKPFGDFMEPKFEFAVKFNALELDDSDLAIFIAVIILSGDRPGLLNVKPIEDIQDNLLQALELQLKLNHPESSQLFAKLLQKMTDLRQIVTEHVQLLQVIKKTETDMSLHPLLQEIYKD
Text: The peroxisome proliferator-activated receptors (PPARs), PPARα, PPARδ, and PPARγ are ligand-dependent transcription factors regulated by FAs, including MCFAs, which control expression of several key metabolism-associated genes. We thus characterized the binding and transcriptional activity of PBI-4547 to these receptors. A LanthaScreen TR-FRET competitive binding assay was used to determine the binding affinity of PBI-4547 in comparison to the full control agonists GW7647 (PPARα), GW0742 (PPARδ), and rosiglitazone (PPARγ).
The LanthaScreen time-resolved fluorescence resonance energy transfer (TR-FRET) PPARα, PPARδ and PPARγ competitive binding assay (Fisher Scientific) was performed according to the manufacturer’s protocol. […] The FRET signal was measured using an Infinite M1000 microplate reader by excitation at 332 nm and emission at 520 nm for fluorescein and 490 nm for terbium. Competitive ligand binding to PPAR is detected by a test compound’s ability to displace the Fluormone pan-PPAR Green from the LBD, which results in a decrease of the 520 nm/490 nm TR-FRET ratio. The inhibition constant (Ki) of the competitor ligand was calculated by applying the Cheng-Prusoff equation.

- pEC50 [1]: 4.32
- pKi [2]: 7.06
Compound: CCCCCc1cc(CCCCC)cc(CC(=O)[O-])c1.[Na+] [PBI-4547, 2-[3,5-dipentylphenyl]acetate sodium salt]
